Source: patent publication US6953779B2, “Melanocortin receptor antagonists and modulations of melanocortin receptor activity” (The Regents of the University of California, priority 1998, dated 2005)
Square brackets hold non-standard residues; d marks the D form. Peptide text beside a SMILES is read from it. * marks the point of attachment. Benzoyl(3-OMe) = COc1cccc(C(=O)*)c1; Benzoyl(4-OMe) = COc1ccc(C(=O)*)cc1; d2Thi = N[C@H](Cc1cccs1)C(=O)O

How the values were obtained:
[1] = system: dispersion of melanin initiated by norepinephrine, serotonin, vasotocin, PACAP-27; experiment: Selectivity: melanin dispersion initiated by other ligands in melanophores; format: cell-based, Xenopus laevis; conditions: 30 nM
Protocol: The selectivity of the MC receptor antagonism by dynorphin A(6-12) analogs was examined.
Melanophore responses were determined by measuring absorbance (OD) ratios taken through a monolayer of cells using a FisherBiotec BT2000 Microplate Reader (Pittsburgh, Pa.). Absorbance was measured before and after a 90 minute exposure to test peptides and then expressed as percent of initial absorbance. (Measurements were taken after 60 minutes pretreatment with 10 nM melatonin to initiate readings from an aggregated state.)

[2] = system: heat-induced edema in the anesthetized rat's paw; experiment: Suppression of heat-induced edema in the anesthetized rat's paw (anti-inflammatory); format: in vivo; conditions: for Anti-Inflammatory ED50: suppression of heat-induced edema in the anesthetized rat's paw
[3] = biological target: T1, ACTH (MCR-2) receptor endogenous to murine Y1 adrenocortical cells (Mus musculus, UniProt Q64326); experiment: cAMP concentration-response to ACTH-(1-24) in Y1 cells; format: cell-based; conditions: for shift of the concentration-response curve of ACTH-(1-24) to the right: 30 μM
T1 construct: the ACTH (MCR-2) receptor endogenous to murine Y1 adrenocortical cells; endogenous in cells; host or cells: murine Y1 adrenocortical cells
Protocol: (§1) Peptide concentration-response measurements are made in HEK-293 cells by quantifying cAMP levels using a [8-^3H]-CAMP kit from Amersham. Briefly, cells transfected with MC receptors, plated to confluency in 96-well tissue culture plates, are rinsed for 1 hr with 70% (vol/vol) L-15 medium containing 0.5% bovine serum albumin. […] Cellular debris was separated from extracted samples by centrifugation, 400 μL aliquots of the supernatant lyophilized, and total cAMP content quantified by isotope counting.
(§2) Concentration response measurements were made also as described in Example 2, but in Xenopus fibroblasts, COS-7, HEK-293, and Y1 cells.

[4] = system: atypical MC receptor in Cos-7 cells; experiment: cAMP concentration-response to α-MSH in Cos-7 cells; format: cell-based
Protocol: as §1, §2

[5] = biological target: T2, MCR-1 (Homo sapiens, UniProt Q01726); experiment: cAMP concentration-response to α-MSH in HEK-293 cells transfected with human MCR-1; format: cell-based; set-up: expressed in transfected cells; conditions: presence and absence of 30 μM antagonist
Excerpt: (§3) A second method for studying MCR antagonists is to use mammalian cells stably transfected with the cDNA for various human MCR. These transfected cells manifest an increased CAMP response to α-MSH stimulation and agents which antagonize MCR will block this stimulating effect of α-MSH. The inhibitory effects of antagonists can be quantified by the change in the effective concentration (EC50) of α-MSH i the presence of antagonist, or by computation of Ki value by a Schild regression analysis.
Human embryonic kidney (HEK-293) cells were maintained in modified Eagle's medium (DMEM/H-16/F-12) with 10% fetal calf serum (FBS), 100 U/mL penicillin “G” and 100 μg/mL streptomycin (P/S; Gemini). Transfections were performed using cDNA containing the human MCR-1 receptor (pcDNAI/NEO.hMC1), or MCR-4 (pcCMV.hMC4) receptors. HEK-293 cells are stably transformed with the human MCR-1 and MCR-4 receptors by electroporating 20 μg of plasmid cDNA using a Gene Pulser transfection apparatus (450 V, 960 μF; BioRad, Hercules, Calif.). […]
Peptide concentration-response measurements are made in HEK-293 cells by quantifying cAMP levels using a [8-^3H]-CAMP kit from Amersham. […] Cellular debris was separated from extracted samples by centrifugation, 400 μL aliquots of the supernatant lyophilized, and total cAMP content quantified by isotope counting. […]

[6] = biological target: T3, MCR-4 (Homo sapiens, UniProt P32245); experiment: cAMP concentration-response to α-MSH in HEK-293 cells transfected with human MCR-4; format: cell-based; set-up: expressed in transfected cells; conditions: presence and absence of 30 μM antagonist
Protocol: A second method for studying MCR antagonists is to use mammalian cells stably transfected with the cDNA for various human MCR.
Human embryonic kidney (HEK-293) cells were maintained in modified Eagle's medium (DMEM/H-16/F-12) with 10% fetal calf serum (FBS), 100 U/mL penicillin “G” and 100 μg/mL streptomycin (P/S; Gemini). Transfections were performed using cDNA containing the human MCR-1 receptor (pcDNAI/NEO.hMC1), or MCR-4 (pcCMV.hMC4) receptors. HEK-293 cells are stably transformed with the human MCR-1 and MCR-4 receptors by electroporating 20 μg of plasmid cDNA using a Gene Pulser transfection apparatus (450 V, 960 μF; BioRad, Hercules, Calif.). After six days, stable MC clonal cell lines were selected by addition of 400 μg/ml G-418 to the medium and kept frozen for future use.
as §1
(§4) HEK-293 cells were maintained and transfected As described in Example 2. […]

[7] = biological target: T4, MCR-3 (Homo sapiens, UniProt P41968); experiment: cAMP concentration-response to α-MSH in HEK-293 cells transfected with human MCR-3; format: cell-based; set-up: expressed in transfected cells; conditions: presence and absence of 30 μM antagonist
Excerpt: as §3
Peptide concentration-response measurements are made in HEK-293 cells by quantifying cAMP levels using a [8-^3H]-CAMP kit from Amersham. Briefly, cells transfected with MC receptors, plated to confluency in 96-well tissue culture plates, are rinsed for 1 hr with 70% (vol/vol) L-15 medium containing 0.5% bovine serum albumin. After a 30 min exposure to test ligands, HEK-293 cells are rinsed twice with ice-cold 70% phosphate-buffered saline (0.07 g/L CaCl2, 0.07 g/L MgCl2.6H2O, 0.14 g/L KH2PO4, 1.51 g/L Na2HPO4.7H2O, 0.14 g/L KCl, 5.6 g/L NaCl, pH 7.4), and intracellular CAMP extracted with 1 mL of 60% (vol/vol) ethanol. Cellular debris was separated from extracted samples by centrifugation, 400 μL aliquots of the supernatant lyophilized, and total cAMP content quantified by isotope counting.
as §4

[8] = biological target: T5, MC receptors endogenous to Xenopus melanophores (Xenopus laevis, UniProt A0A1L8GF34); conditions: Quillan and Sadée 1997, cited from earlier work
T5 sequence (A0A1L8GF34 1-317): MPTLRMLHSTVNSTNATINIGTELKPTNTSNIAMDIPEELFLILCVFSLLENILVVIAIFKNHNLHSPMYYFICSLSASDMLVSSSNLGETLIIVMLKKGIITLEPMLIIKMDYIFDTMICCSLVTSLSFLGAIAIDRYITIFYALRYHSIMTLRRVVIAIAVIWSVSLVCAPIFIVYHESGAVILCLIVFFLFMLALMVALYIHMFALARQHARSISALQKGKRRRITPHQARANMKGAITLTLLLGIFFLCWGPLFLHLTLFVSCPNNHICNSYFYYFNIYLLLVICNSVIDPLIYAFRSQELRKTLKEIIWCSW

[9] = biological target: T4, MCR-3; conditions: Ollmann et al.; cited from earlier work
[10] = biological target: T2, MCR-1; conditions: at concentrations up to 100 nM; Ollmann et al.; cited from earlier work
[11] = biological target: T3, MCR-4; conditions: Ollmann et al.; cited from earlier work
[12] = system: B16-F1 mouse melanoma cells; conditions: Siegrist et al.; read-out: antiproliferative half-maximal effective concentration; cited from earlier work

T1 sequence (Q64326 whole entry): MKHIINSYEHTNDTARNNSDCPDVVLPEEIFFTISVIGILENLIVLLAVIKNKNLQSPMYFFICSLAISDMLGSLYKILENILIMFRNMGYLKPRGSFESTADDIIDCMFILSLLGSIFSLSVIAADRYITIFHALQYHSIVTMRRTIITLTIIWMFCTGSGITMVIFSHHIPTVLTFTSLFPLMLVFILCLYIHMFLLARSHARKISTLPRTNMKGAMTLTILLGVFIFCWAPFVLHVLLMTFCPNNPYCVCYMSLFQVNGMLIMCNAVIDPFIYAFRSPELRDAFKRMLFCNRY
T1 sequence (Q9D159 whole entry partner): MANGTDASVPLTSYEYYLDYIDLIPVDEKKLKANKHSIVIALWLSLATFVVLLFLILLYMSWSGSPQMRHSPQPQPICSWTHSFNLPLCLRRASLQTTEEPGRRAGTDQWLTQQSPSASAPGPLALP
T2 sequence (Q01726 whole entry): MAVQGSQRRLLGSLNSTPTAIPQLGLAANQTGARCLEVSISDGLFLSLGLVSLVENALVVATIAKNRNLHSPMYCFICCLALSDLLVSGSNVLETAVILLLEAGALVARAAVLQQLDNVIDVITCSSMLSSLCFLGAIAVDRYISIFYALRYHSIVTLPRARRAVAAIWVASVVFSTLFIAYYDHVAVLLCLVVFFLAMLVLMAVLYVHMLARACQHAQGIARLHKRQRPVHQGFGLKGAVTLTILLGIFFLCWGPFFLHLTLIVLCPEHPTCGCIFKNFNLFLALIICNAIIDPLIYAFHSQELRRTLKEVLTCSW
T3 sequence (P32245 whole entry): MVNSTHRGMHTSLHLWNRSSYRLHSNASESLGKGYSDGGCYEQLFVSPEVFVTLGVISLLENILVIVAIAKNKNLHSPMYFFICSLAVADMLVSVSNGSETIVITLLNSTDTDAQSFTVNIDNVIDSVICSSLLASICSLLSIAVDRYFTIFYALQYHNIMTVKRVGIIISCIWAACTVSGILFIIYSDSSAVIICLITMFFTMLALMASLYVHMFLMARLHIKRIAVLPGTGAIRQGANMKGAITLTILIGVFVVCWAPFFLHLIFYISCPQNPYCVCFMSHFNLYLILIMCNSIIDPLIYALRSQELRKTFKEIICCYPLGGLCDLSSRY
T4 sequence (P41968 whole entry): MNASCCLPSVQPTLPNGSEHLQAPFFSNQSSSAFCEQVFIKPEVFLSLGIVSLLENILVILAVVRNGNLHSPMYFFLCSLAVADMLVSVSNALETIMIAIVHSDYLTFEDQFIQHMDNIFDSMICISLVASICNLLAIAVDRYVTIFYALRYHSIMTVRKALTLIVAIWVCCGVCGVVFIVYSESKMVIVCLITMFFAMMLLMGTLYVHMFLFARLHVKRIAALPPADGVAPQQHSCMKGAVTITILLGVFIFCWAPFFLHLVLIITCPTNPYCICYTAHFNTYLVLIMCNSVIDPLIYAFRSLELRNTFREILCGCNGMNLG

For `CSCC[C@@H]1NC(=O)[C@H](C)NC(=O)[C@H]([C@@H](C)O)NC(=O)CNC(=O)[C@H](CC(C)C)NC(=O)[C@H](CCCCN)NC(=O)[C@H](CCCNC(=N)N)NC(=O)[C@@H]2CSSC[C@@H]3NC(=O)[C@@H]4CCCN4C(=O)[C@H](C(C)C)NC(=O)[C@H](CCC(N)=O)NC(=O)[C@H](CCC(N)=O)NC(=O)CNC(=O)[C@H](CC(C)C)NC(=O)[C@@H]4CSSC[C@H](NC(=O)[C@H]([C@@H](C)O)NC(=O)[C@H](C)NC(=O)[C@H](CSSC[C@@H](C(=O)N[C@@H](CO)C(=O)N[C@@H](CCCNC(=N)N)C(=O)N[C@H](C(N)=O)[C@@H](C)O)NC(=O)[C@@H]5CCCN5C(=O)[C@H](CC(N)=O)NC1=O)NC(=O)[C@@H]1CCCN1C(=O)[C@H](CC(=O)O)NC(=O)[C@H](CSSC[C@H](NC(=O)[C@H](CCCNC(=N)N)NC(=O)[C@H](CCCNC(=N)N)NC(=O)[C@H](CO)NC(=O)[C@@H](N)CO)C(=O)N[C@@H](C(C)C)C(=O)N[C@@H](CCCNC(=N)N)C(=O)N[C@@H](CC(C)C)C(=O)N[C@@H](Cc1c[nH]cn1)C(=O)N[C@@H](CCC(=O)O)C(=O)N[C@@H](CO)C(=O)N4)NC3=O)C(=O)N[C@@H](Cc1ccc(O)cc1)C(=O)N[C@H]1CSSC[C@H](NC(=O)[C@H](Cc3ccccc3)NC(=O)[C@H](C)NC(=O)[C@H](CC(N)=O)NC(=O)[C@H](Cc3ccccc3)NC(=O)[C@H](Cc3ccccc3)NC(=O)[C@H](CCCNC(=N)N)NC1=O)C(=O)N[C@@H](Cc1ccc(O)cc1)C(=O)N2` [ARP-(83-132)-NH2, SSRRCVRL HESCLGQQVPCCDPCATCYCRFFNAFCYCRKLGTAMNPCSRT], the “effect on concentration-response curves evoked with norepinephrine, serotonin, PACAP-27, and Arg8-vasotocin” value [1] was “no effect”.

With `CC[C@H](C)[C@H](NC(=O)[C@H](CCCNC(=N)N)NC(=O)[C@H](CCCNC(=N)N)NC(=O)c1cccc(OC)c1)C(=O)N[C@@H](CCCNC(=N)N)C(=O)N1CCC[C@H]1C(=O)N[C@@H](CCCCN)C(=O)N[C@@H](C)C(N)=O` [SQW-13, m-anisoyl-Arg-Arg-Ile-Arg-Pro-Lys-Ala-amide] ({Benzoyl(3-OMe)}-RRIRPKA-NH2) the “Anti-Inflammatory ED50” value ([2]; i) was 2.39 µmol/kg.

For `CC[C@H](C)[C@H](NC(=O)[C@H](CCCNC(=N)N)NC(=O)[C@H](CCCNC(=N)N)NC(=O)[C@H](CC(C)C)NC(=O)[C@H](Cc1ccccc1)NC(=O)CNC(=O)CNC(=O)[C@@H](N)Cc1ccc(O)cc1)C(=O)N[C@@H](CCCNC(=N)N)C(=O)N1CCC[C@H]1C(=O)N[C@@H](CCCCN)C(=O)N[C@@H](CC(C)C)C(=O)N[C@@H](CCCCN)C(N)=O` [dynorphin A(1-13)-NH2], the “effect on basal or forskolin (3 μM) stimulated cAMP production” value ([3]; Y1 cells) was “did not significantly affect”, the “shift of the concentration-response curve of ACTH-(1-24) to the right” value ([3]; Y1 cells) was about 200 fold and the “estimated Kd” value ([3]; from shift in the ACTH concentration-response curve) was “submicromolar range”. For the same molecule, the “shift of α-MSH EC50” value ([4]; 30 μM) was about 50 fold and the Kd ([4]; read-out: K4) was about 1000 nM.

With `CC[C@H](C)[C@H](NC(=O)[C@H](CCCNC(=N)N)NC(=O)[C@H](CCCNC(=N)N)NC(=O)[C@H](CC(C)C)NC(=O)[C@H](Cc1ccccc1)NC(=O)CNC(=O)CN)C(=O)N[C@@H](CCCNC(=N)N)C(=O)N1CCC[C@H]1C(=O)N[C@@H](CCCCN)C(=O)N[C@@H](CC(C)C)C(=O)N[C@@H](CCCCN)C(=O)O` [dynorphin A(2-13)] the “shift of the concentration-response curve of ACTH-(1-24) to the right” value ([3]; Y1 cells) was “approximately 15 fold”, the “Dose ratio from α-MSH dose-response curves” value (shortened to “Dose ratio”) [5] was 250±31 and the “Dose ratio” value [6] was 147±13. For the same molecule, the “Dose ratio” value [7] was 128±44.

In the case of `CC[C@H](C)[C@H](NC(=O)[C@@H](Cc1cccs1)NC(=O)[C@H](CC(C)C)NC(=O)[C@H](CC(C)C)NC(=O)[C@H](CCCCN)NC(=O)[C@H](CCCNC(=N)N)NC(=O)c1ccc(OC)cc1)C(=O)N[C@H](CC(C)C)C(N)=O` [mystixin-7, p-anisoyl-Arg-Lys-Leu-Leu-D-Thi-Ile-D-Leu-NH2] ({Benzoyl(4-OMe)}-RKLL[d2Thi]I[dL]-NH2), the “Anti-Inflammatory ED50” value ([2]; i.v.) is reported as 0.02 (0.014-0.059) mg/kg.

In the case of Dynorphin A(2-17) [reference compound], the IC50 ([8]; against 600 pM α-MSH) is listed as 190 nM and the anti-edema activity ([2]; in words) is listed as “at least twice more active”.

For Dynorphin A(6-17), the antagonist activity [8] is given as “inactive”.

For “agouti-related protein (ARP): agouti-related protein cloned from non-epidermal tissues (SSRRCVRLHESCLGQQVPCCDPCATCYCRFFNAFCYCRKLGTAMNPCSRT; UniProt O00253 83-132, looked up)”, the “inhibition for MCR-3” value [9] is listed as “dose dependent inhibition”, the “effect on MCR-1” value [10] is listed as “little effect” and the “inhibition for MCR-4” value [11] is listed as “dose dependent inhibition”.

With α-MSH the “stimulating cAMP accumulation in Y1 cells” value ([3]; up to concentrations of 10 μM) was “not effective” and the EC50 ([4]; read-out: EC50 of α-MSH for cAMP production) was about 80 nM.

B1: ASP: agouti-signaling protein, MCR antagonist elaborated by hair follicle melanocytes (protein, UniProt P42127 23-132, looked up)
Agouti-signaling protein: HLPPEEKLRDDRSLRSNSSVNLLDVPSVSIVALNKKSKQIGRKAAEKKRSSKKEASMKKVVRPRTPLSAPCVATRNSCKPPAPACCDPCASCQCRFFRSACSCRVLSLNC
For B1, the EC50 [12] is given as 13 nM.
